Results reported in US8193160B2 (priority 2006, dated 2012).

Tests used:
[1] = tested on: Magnaporthe vegetative mycelia, abc3Δ mutant; format: cell-based
[2] = tested on: abc3Δ mutant; format: cell-based, Magnaporthe grisea

Molecule	Minimum Inhibitory Concentration (MIC), abc3Δ [1] [µg/mL]	growth under oxidative stress [2]
CCCCNC(=O)n1c(NC(=O)OC)nc2ccccc21 [Benomyl]	2	–
C[C@H]1CCC/C=C/[C@@H]2C[C@H](O)C[C@H]2[C@H](O)/C=C/C(=O)O1 [Brefeldin A]	40	–
OC(Cn1cncn1)(Cn1cncn1)c1ccc(F)cc1F [Fluconazole]	2500	–
CCC(=C/[C@H](C)C/C=C/C(C)=C/[C@@H](C)C(=O)[C@@H](C)[C@H](O)[C@@H](C)C/C(C)=C/C(=O)O)/C=C/[C@@H]1OC(=O)C=C[C@@H]1C [Leptomycin B]	0.0075	–
CC(C)[C@@H]1NC(=O)[C@H](C)OC(=O)[C@@H](C(C)C)NC(=O)[C@@H](C(C)C)OC(=O)[C@H](C(C)C)NC(=O)[C@H](C)OC(=O)[C@@H](C(C)C)NC(=O)[C@@H](C(C)C)OC(=O)[C@H](C(C)C)NC(=O)[C@H](C)OC(=O)[C@@H](C(C)C)NC(=O)[C@@H](C(C)C)OC1=O [Valinomycin]	3	–
OO [hydrogen peroxide]	–	lethal
Actinomycin D	3.5	–
Gramicidin D	180	–
